Data from patent US4186136A, “Novel benzothienyl amino (propyl and butyl) ketones, a method of preparation thereof and their application to therapeutics” (priority 1975, dated 1980).
≈ marks a conversion by molar mass, not a printed value. Where “and” joins values, the source holds several entries; their conditions need not be identical. Equal entries are not always repeated.

Assays:
[1] = system: human blood-plaques (aggregation with adrenaline); test: Inhibition of blood-plaque aggregation induced by adrenaline; format: cell-based; details: for inhibition at 25 µg/mL: Homo sapiens, C (X)=2.5×10^-5 g/ml, read-out: Inhibitory activity of the blood-plaque aggregation, ADRENALINE, a (X); for Ratio of a (X) to a (R), ADRENALINE (head drawn): X 2.5×10^-5 g/ml, R 5×10^-4 g/ml
From the text: (§1) The blood plaques used for these studies were human blood-plaques introduced into the test in the form of blood-plaque rich plasmas (B.P.R.P.).
(§2) These latter were obtained as water-repellent material by slow centrifugation from human blood samples.
(§3) The study of blood-plaque aggregation was made by means of an aggregate-meter with continuous agitation and graphic recording according to the conventional method. (PROST R. S., SOUVERAIN C. H., DOUMENC J., Etude de l'agregation plaquettaire a l'aide de l'agregametre de MUSTARD-Coagulation, 1971, 4, 2, 145-151).
(§4) The agents employed for inducing aggregation were diphosphoric adenosine acid (D.P.A.), 1-(3',4'-di-hydroxyphenyl)-2-methylamino ethanol (adrenaline) and collagene. All these reactants were prepared from mother solutions diluted in a Michaelis' buffer. Their concentration in the test may vary according to the affinity of the blood-plaques.
(§5) An optimum concentration is thus sought by successive tests on the same B.P.R.P.
(§6) The inhibitory activity on the aggregation was evaluated by addition of the product under study to the B.P.R.P. before introduction of the aggregating agent.
(§7) The concentrations of compounds of formula I (X) in the B.P.R.P. are: C (X)=2.5×10^-5 g/ml for aggregation with D.P.A. and adrenaline, and C (X)=2×10^-5 g/ml for collagene.
(§8) The reference product (R) is 2,6-bis (diethanolamino)-4,8-dipiperidinopyrimido[5,4-d]pyramidine (known under the trademark "Dipyridamole") used in the concentration C (R)=5×10^-4 g/ml for aggregation with D.P.A. and adrenaline and C (R)=2×10^-4 g/ml for aggregation with collagene.
(§9) The following table IV indicates the activity of some compounds of formula I: a (X) the activity of the reference product: a (R) and the different values of the ratio: [formula]

[2] = system: human blood-plaques (aggregation with D.P.A.); test: Inhibition of blood-plaque aggregation induced by D.P.A.; format: cell-based; details: for Ratio of a (X) to a (R), D.P.A. (head drawn): X 2.5×10^-5 g/ml, R 5×10^-4 g/ml; for inhibition at 25 µg/mL: Homo sapiens, read-out: Inhibitory activity of the blood-plaque aggregation, D.P.A., a (X)
From the text: as §1, §2, §3, §4, §5, §6, §7, §8, §9

[3] = Acute toxicity, oral, mouse (LD 50, Miller and Tainter); format: in vivo; details: in vivo, po, death rate checked for seven days, read-out: 50% lethal dose (LD 50) (converted)
Experimental: The acute toxicity of the compounds of formula (I) were evaluated orally (esophagean probe) on a mouse deprived of food 18 hours before the beginning of the test. The products were placed in suspension in a solution of dilute carboxymethyl cellulose. Calculation of the 50 lethal dose (LD 50) was effected according to the method of Miller and Tainter (Miller L. C., Tainter M. L., Proc. Soc. Exptl. Biol. Med. 1944, 57, 261-264).
The death rate was checked for seven days following the treatment.
Table III gives the 50% lethal doses (LD 50) in milligrammes per kilogramme body weight.

[4] = system: human blood-plaques (aggregation with collagene); test: Inhibition of blood-plaque aggregation induced by collagene; format: cell-based; details: for inhibition at 20 µg/mL: Homo sapiens, read-out: Inhibitory activity of the blood-plaque aggregation, COLLAGENE, a (X); for Ratio of a (X) to a (R), COLLAGENE (head drawn): X 2×10^-5 g/ml, R 2×10^-4 g/ml
From the text: as §1, §2, §3, §4, §5, §6, §7, §8, §9

[5] = system: rat's isolated duodenum; test: Spasmolytic activity on isolated duodenum contracted by barium chloride (Magnus); details: for ED 50 (R) / ED 50 (X): relative to papaverine hydrochloride; for IC50: Rattus norvegicus, barium chloride contraction, Tyrode, 38° C., read-out: Spasmolytic activity ED 50 (X)
Experimental: The spasmolytic activity was studied on a rat's isolated duodenum maintained in a survival medium of an aerated Tyrode solution heated to 38° C. according to the technique of Magnus (Magnus R.-Archivs ges. Physiol., 1905, 180, 1-71).
The contracting agent used was barium chloride, the reference antogonist agent being papaverine hydrochloride (R). The average activity of the compounds of formula I (X) in comparison with that of the reference agent was expressed by calculating the ratio of the 50 efficient doses (ED 50) determined graphically on logarithmic paper: [formula]
For example: a substance having a relative activity expressed by the FIG. 2 presents an activity equal to twice that of papaverine hydrochloride.

[6] = system: phenylparaquinone (P.P.Q.) painful syndrome in a mouse; test: Analgesic and anti-inflammatory activity, phenylparaquinone (P.P.Q.) painful syndrome; format: in vivo; details: for Analgesic and anti-inflammatory activity, percentage activity a(X): 50 mg/kg digestively; for a(X) / a(R), analgesic and anti-inflammatory activity: X 50 mg/kg, R (Galfenine) 25 mg/kg
Experimental: The intraperitoneal injection of phenylparaquinone (P.P.Q.) in a mouse causes the appearance of a painful syndrome appearing within 5 minutes of the injection and disappearing after about 30 minutes (SIEGMUND E. A., CADMUS A., LU G., J. Pharmacol. Exp. Therap. 1957, 119, 453). This painful syndrome manifests itself in the animal by a series of characteristic crises, more or less close together and fleeting, during which we can note a twisting or stretching of the body, a hollowing of the sides and a stretching of the hind legs.
It is therefore possible to note the number of crises in a given interval of time.
The preventive administration of analgesic or anti-inflammatory substances prevents the appearance of crises or reduces the frequency thereof.
The reference substance (R) used in the tests was the ester of N-(7-chloro-4 quinolyl) anthranilic acid and 2,3-dihydroxy n.propanol (known under the trademark Galfenine).
It was administered orally with a dose of 25 mg/kg.
The compounds of formula I (X) were administered digestively with a dose of 50 mg/kg.
The interval of time (t) which was chosen to evaluate the analgesic activity was between 10 and 15 minutes which is the period of maximum frequency of the crises. This activity was expressed in the following way:
n: number of crises observed in the control mice;
n': number of crises observed in mice previously treated with the reference substance (R);
n": number of crises observed in mice having received the substance (X).
The percentage activity of R is equal to [formula]
The percentage activity of X is equal to [formula]
The activity of X in relation to that of R is estimated by the ratio [formula]
For example: a compound X for which [formula] is 0.5 has an activity equal to half that of the reference product.

[7] = system: isolated heart of a gumea-pig; test: Vaso-dilatatory activity, coronary flow of isolated perfused heart; details: for activation at 10 µg/mL: 1×10^-5 g/ml, coronary flow at climax of activity, Locke, 37° C., read-out: Percentage flow increase P (X); for P (X) / P (R): relative to Dipyridamole, both 1×10^-5 g/ml
Experimental: The coronary flow is recorded, by means of an electronic device fitted with a Fleish totaliser, before and after addition of the substance X under study (concentration: 1×10^-5 g/ml), the reference product (R) being 2,6-bis (diethanolamino) 4,8-dipiperidinopyrimido[5,4-d]pyrimidine (known under the trademark "Dipyridamole") used at a concentration of 1×10^-5 g/ml.
The percentage flow increase P was calculated at the climax of the activity of X or R.

[8] = crises between 10 and 15 minutes

| Compound | inhibition at 25 µg/mL [1] [%] | Ratio of a (X) to a (R), ADRENALINE (head drawn) [1] | Ratio of a (X) to a (R), D.P.A. (head drawn) [2] | inhibition at 25 µg/mL ([2]; C (X)=2.5×10^-5 g/ml) [%] | LD50 at 168 h [3] [mg/kg] | inhibition at 20 µg/mL ([4]; C (X)=2×10^-5 g/ml) [%] | Ratio of a (X) to a (R), COLLAGENE (head drawn) [4] | ED 50 (R) / ED 50 (X) [5] | Analgesic and anti-inflammatory activity, percentage activity a(X) [6, 8] [%] | a(X) / a(R), analgesic and anti-inflammatory activity [6] | IC50 [5] [µg/mL] | Analgesic and anti-inflammatory activity, percentage activity a(R) ([6]; reference substance, 25 mg/kg orally, crises between 10 and 15 minutes, 25 mg/kg) | Inhibitory activity of the blood-plaque aggregation, D.P.A., a (X) ([2]; C (X)=2.5×10^-5 g/ml) [%] | activation at 10 µg/mL [7] [%] | P (X) / P (R) [7] | Inhibitory activity of the blood-plaque aggregation, COLLAGENE, a (X) ([4]; C (X)=2×10^-5 g/ml) [%] |
| --- | --- | --- | --- | --- | --- | --- | --- | --- | --- | --- | --- | --- | --- | --- | --- | --- |
| O=C(CCCN1CCCCC1)c1cc2ccccc2s1 [Compound 5] | 84 | 1.1 | 1.5×10^-1 | 8 | 1300 | 12 | 1.4×10^-1 |  |  |  |  |  |  |  |  |  |
| CCN(CC)CCCC(=O)c1csc2ccccc12 [Compound 9] | 86 | 1 | 1.9×10^-1 | 15 | > 1200 | 16 | 3×10^-1 | 8.10 | 47 | 1 |  |  |  |  |  |  |
| O=C(CCCN1CCCC1)c1csc2ccccc12 [Compound 13] | 84 | 1.1 | 2.3×10^-1 | 18 | 760 |  |  | 1.55 |  |  | 2.25 (≈ 8.23 µM) |  |  |  |  |  |
| O=C(OCC(O)CO)c1ccccc1Nc1ccnc2cc(Cl)ccc12 (centres unmarked) [Galfenine, ester of N-(7-chloro-4 quinolyl) anthranilic acid and 2,3-dihydroxy n.propanol, reference compound] |  |  |  |  |  |  |  |  |  |  |  | 75% and 77% and 45% and 74% |  |  |  |  |
| O=C(CCCN1CCCCCC1)c1csc2ccccc12 [Compound 15] | 82 | 9.5×10^-1 |  |  | 950 |  |  | 1.6 | 51 | 1.13 | 3 (≈ 9.95 µM) |  | 17 | 172 | 2.42 |  |
| O=C(CCCN1CCOCC1)c1cc2ccccc2s1 [Compound 1, 1-(benzothien-2'-yl)-4-N-morpholino butanone] | 9 | 1×10^-1 |  |  | 1200 |  | 3.3×10^-1 |  |  |  |  |  |  | 28 | 6.5 × 10^-1 | 12 |
| O=C(CCCN1CCCCC1)c1csc2ccccc12 [Compound 14] | 42 | 5.5×10^-1 |  |  | 850 |  |  |  | 39 | 5.3 × 10^-1 |  |  |  |  |  |  |
